How the values were obtained:
5-HT-uptake = assay: Measurement of serotonin re-uptake in rat brain synaptosomes (P2 fraction, medulla+pons region); assay type: biochemical; conditions: synaptosomes from medulla+pons region of male rats' brains
Description: Measurement of Serotonin Re-Uptake
In order to carry out these in vitro studies, synaptosomes were freshly isolated from areas of rats' brains. In each case, what is known as a “P2” fraction, which was prepared in accordance with Gray and Whittaker's directions (E. G. Gray and V. P. Whittaker (1962) J. Anat. 76, 79-88), was used. For the 5HT-e, uptake these vesicular particles were isolated from the medulla+pons region of male rats' brains.
A detailed description of the method can be found in the literature (M. Ch. Frink, H.-H. Hennies, W. Englberger, M. Haurand and B. Wilffert (1996) Arzneim.-Forsch./Drug Res. 46 (III), 11, 1029-1036).

NA-uptake = assay: Measurement of noradrenalin re-uptake in rat brain synaptosomes (P2 fraction, hypothalamus); assay type: biochemical; conditions: synaptosomes from hypothalamus of male rats' brains
Description: Measurement of Noradrenalin Re-Uptake
In order to carry out these in vitro studies, synaptosomes were freshly isolated from rat brain areas. In each case, what is known as a “P2” fraction, which was prepared in accordance with Gray and Whittaker's directions (E. G. Gray and V. P. Whittaker (1962) J. Anat. 76, 79-88), was used. For the NA-uptake, uptake these vesicular particles were isolated from the hypothalamus of male rats' brains.
A detailed description of the method can be found in the literature (M. Ch. Frink, H.-H. Hennies, W. Englberger, M. Haurand and B. Wilffert (1996) Atzneim.-Forsch./Drug Res. 46 (III), 11, 1029-1036).

Compound	5-HT-uptake, 10 μM, % inhibition (5-HT-uptake)	NA-uptake, 10 μM, % inhibition (NA-uptake)
Cc1onc(-c2ccccc2Cl)c1C(=O)NC1CCC(c2cccc(F)c2)(N(C)C)CC1.Cl (single isomer, unassigned) [Example 118, 3-(2-chlorophenyl)-5-methylisoxazole-4-carboxylic acid [4-dimethyl-amino-4-(3-fluorophenyl)cyclohexyl]amide hydrochloride, non-polar diastereoisomer]	50%	–
Cc1onc(-c2ccccc2Cl)c1C(=O)NC1CCC(c2cccc(F)c2)(N(C)C)CC1.Cl (single isomer, unassigned) [Example 119, 3-(2-chlorophenyl)-5-methylisoxazole-4-carboxylic acid [4-dimethyl-amino-4-(3-fluorophenyl)cyclohexyl]amide hydrochloride, polar diastereoisomer]	86%	59%

Source: patent US8093272B2 (priority 2004, dated 2012)
